Read-outs that look alike come from different tables or passages of the source.
What was measured:
[1] = molecular target: T1, arginine methyltransferase CARM1 (Homo sapiens, UniProt Q86X55); experiment: Filterbinding and gel (fluorography) HMTase assay against CARM1; type: biochemical
T1 sequence (Q86X55 1-608): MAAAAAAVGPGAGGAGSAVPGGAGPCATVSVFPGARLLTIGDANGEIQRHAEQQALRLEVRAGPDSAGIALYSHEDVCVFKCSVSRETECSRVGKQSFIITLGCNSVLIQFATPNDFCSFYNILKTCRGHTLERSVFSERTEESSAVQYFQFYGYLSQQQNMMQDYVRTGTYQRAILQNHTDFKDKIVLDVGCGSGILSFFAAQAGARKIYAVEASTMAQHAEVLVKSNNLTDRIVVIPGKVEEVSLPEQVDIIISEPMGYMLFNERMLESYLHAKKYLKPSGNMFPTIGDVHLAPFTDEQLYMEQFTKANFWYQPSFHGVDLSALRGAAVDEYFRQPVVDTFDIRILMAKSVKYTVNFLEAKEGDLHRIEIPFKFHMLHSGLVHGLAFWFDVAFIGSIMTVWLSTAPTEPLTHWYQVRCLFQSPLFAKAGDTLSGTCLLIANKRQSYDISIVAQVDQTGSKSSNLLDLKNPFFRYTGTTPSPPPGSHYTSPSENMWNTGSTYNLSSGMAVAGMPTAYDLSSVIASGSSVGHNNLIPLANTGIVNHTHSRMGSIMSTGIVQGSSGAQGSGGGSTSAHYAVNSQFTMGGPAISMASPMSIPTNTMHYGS
Excerpt: (§1) FIG. 1a: Effect of LTK20 on Histone Modifying Enzymes (Filterbinding Assay) Filterbinding Assay of LTK20 carried out with the Histone acetyltransferases p300, PCAF and Histone methyltransferases CARM1, G9a. Lane 1—histones alone, lane 2—Enzyme control, lane 3—DMSO control, lane 4-5, LTK20 in increasing concentration.
(§2) FIG. 1b: Effect of LTK20 on Histone Modifying Enzymes (Fluorography) Gel Assay of LTK20 carried out with Histone acetyltransferases p300, PCAF and Histone methyltransferases CARM1, G9a. Lane 1—histones alone, lane 2—Enzyme control, lane 3—DMSO control, lane 4 & 5—LTK20 in increasing concentration.
(§3) (2,3,7,8-TETRAHYDROXY[1]BENZOPYRANO[5,4,3(DE)[1]BENZOPYRAN5,10-DIONE) was identified as a specific inhibitor of the arginine methyltransferase CARM1 with an IC50 of 20 μM, both by filterbinding (FIG. 1a) and fluorography assays (FIG. 1b).

[2] = molecular target: T2, lysine methyltransferase G9a (Homo sapiens, UniProt Q96KQ7); experiment: Filterbinding and gel (fluorography) HMTase assay against G9a; type: biochemical
T2 sequence (Q96KQ7 1-1210): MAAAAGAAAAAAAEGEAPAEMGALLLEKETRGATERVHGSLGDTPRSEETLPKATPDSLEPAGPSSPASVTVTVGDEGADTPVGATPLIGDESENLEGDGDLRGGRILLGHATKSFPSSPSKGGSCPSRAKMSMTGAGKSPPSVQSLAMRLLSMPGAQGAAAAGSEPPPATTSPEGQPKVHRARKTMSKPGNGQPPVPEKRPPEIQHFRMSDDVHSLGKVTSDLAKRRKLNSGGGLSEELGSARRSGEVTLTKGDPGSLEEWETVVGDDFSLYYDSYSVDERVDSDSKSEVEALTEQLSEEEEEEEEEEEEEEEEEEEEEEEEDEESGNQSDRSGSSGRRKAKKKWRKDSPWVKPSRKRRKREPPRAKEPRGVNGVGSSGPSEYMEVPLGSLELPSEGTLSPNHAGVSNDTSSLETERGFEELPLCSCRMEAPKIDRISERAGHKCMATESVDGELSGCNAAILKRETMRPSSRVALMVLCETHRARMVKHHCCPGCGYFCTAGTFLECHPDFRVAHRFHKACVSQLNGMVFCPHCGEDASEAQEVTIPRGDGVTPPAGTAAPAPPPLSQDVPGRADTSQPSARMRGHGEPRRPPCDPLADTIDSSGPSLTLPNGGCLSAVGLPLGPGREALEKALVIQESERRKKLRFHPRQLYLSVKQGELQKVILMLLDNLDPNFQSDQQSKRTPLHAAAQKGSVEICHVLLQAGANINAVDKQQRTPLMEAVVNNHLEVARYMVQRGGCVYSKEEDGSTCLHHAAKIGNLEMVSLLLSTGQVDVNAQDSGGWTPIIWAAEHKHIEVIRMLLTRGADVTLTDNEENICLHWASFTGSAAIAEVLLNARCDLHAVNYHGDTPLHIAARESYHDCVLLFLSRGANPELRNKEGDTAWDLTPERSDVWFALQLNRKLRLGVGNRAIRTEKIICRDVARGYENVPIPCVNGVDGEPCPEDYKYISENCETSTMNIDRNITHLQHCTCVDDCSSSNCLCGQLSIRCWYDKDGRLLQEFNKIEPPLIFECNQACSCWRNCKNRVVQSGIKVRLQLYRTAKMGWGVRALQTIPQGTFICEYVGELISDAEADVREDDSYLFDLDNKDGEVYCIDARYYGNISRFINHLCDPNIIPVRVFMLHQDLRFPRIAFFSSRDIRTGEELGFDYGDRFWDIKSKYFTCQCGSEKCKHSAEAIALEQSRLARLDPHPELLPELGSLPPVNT
Excerpt: as §1, §2, §3

[3] = molecular target: histone acetyltransferase p300 (Homo sapiens, UniProt Q09472); experiment: Filterbinding and gel (fluorography) HAT assay against p300; type: biochemical
Sequence of histone acetyltransferase p300 (Q09472 whole entry): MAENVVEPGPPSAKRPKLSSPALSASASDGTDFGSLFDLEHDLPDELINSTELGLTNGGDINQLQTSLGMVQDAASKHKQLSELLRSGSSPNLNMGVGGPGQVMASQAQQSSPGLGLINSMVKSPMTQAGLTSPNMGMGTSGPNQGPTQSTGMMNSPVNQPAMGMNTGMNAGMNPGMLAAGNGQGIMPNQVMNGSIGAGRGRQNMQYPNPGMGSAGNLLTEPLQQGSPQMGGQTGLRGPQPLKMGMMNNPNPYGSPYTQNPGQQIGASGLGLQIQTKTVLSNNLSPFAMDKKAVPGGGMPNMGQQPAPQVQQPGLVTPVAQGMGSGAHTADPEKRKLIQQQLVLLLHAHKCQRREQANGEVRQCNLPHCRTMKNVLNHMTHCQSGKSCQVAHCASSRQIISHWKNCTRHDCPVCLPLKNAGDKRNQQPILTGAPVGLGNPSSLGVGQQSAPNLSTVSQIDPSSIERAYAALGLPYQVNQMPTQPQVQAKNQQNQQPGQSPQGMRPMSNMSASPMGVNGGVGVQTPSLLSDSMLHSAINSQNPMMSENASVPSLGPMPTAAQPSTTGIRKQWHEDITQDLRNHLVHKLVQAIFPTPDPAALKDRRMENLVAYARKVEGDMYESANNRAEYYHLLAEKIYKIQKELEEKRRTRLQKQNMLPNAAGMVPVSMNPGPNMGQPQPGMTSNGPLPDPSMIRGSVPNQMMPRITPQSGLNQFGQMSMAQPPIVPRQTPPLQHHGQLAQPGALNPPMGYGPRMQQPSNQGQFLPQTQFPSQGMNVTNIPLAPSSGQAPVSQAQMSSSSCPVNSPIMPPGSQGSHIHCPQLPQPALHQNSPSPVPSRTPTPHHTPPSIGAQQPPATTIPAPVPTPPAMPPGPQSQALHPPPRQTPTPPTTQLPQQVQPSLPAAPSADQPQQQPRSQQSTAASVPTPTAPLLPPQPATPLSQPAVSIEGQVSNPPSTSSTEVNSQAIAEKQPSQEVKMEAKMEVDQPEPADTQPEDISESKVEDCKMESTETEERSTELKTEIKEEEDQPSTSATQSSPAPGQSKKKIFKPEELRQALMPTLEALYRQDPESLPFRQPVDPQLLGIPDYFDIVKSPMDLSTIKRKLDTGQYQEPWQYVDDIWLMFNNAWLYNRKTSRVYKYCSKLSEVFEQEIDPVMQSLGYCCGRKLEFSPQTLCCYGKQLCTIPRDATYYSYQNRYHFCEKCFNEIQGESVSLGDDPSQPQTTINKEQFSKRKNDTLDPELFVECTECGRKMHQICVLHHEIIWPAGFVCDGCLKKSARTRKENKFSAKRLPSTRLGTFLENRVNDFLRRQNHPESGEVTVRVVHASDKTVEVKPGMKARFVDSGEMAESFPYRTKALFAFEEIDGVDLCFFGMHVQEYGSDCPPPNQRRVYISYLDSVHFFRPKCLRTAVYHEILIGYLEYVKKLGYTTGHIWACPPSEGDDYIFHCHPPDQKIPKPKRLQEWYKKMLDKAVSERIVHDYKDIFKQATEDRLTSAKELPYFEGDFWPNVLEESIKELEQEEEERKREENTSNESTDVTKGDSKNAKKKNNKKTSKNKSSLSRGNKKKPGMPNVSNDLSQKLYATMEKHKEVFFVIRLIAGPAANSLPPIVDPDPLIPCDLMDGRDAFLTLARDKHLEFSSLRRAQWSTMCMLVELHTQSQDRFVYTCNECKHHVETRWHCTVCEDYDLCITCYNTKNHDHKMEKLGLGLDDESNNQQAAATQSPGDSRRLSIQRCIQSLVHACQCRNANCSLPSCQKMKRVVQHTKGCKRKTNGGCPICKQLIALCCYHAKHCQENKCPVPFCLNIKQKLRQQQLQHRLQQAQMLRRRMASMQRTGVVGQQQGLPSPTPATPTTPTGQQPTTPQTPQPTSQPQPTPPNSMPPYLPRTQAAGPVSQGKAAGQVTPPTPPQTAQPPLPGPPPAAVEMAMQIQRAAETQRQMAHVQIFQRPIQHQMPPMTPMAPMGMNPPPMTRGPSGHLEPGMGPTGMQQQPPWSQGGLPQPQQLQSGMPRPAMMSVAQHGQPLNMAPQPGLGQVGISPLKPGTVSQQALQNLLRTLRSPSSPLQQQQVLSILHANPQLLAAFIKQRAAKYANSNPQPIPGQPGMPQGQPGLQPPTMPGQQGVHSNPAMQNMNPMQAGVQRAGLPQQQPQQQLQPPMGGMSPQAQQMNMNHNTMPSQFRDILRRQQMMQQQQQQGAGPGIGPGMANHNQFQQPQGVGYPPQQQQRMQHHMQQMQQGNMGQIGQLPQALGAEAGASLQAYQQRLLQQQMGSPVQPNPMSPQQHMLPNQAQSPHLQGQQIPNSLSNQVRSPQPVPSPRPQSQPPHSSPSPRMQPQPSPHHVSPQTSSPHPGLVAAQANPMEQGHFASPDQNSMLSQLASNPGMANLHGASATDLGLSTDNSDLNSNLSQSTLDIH
Excerpt: as §1, §2, §3

[4] = molecular target: histone acetyltransferase PCAF (Homo sapiens, UniProt Q92831); experiment: Filterbinding and gel (fluorography) HAT assay against PCAF; type: biochemical
Sequence of histone acetyltransferase PCAF (Q92831 whole entry): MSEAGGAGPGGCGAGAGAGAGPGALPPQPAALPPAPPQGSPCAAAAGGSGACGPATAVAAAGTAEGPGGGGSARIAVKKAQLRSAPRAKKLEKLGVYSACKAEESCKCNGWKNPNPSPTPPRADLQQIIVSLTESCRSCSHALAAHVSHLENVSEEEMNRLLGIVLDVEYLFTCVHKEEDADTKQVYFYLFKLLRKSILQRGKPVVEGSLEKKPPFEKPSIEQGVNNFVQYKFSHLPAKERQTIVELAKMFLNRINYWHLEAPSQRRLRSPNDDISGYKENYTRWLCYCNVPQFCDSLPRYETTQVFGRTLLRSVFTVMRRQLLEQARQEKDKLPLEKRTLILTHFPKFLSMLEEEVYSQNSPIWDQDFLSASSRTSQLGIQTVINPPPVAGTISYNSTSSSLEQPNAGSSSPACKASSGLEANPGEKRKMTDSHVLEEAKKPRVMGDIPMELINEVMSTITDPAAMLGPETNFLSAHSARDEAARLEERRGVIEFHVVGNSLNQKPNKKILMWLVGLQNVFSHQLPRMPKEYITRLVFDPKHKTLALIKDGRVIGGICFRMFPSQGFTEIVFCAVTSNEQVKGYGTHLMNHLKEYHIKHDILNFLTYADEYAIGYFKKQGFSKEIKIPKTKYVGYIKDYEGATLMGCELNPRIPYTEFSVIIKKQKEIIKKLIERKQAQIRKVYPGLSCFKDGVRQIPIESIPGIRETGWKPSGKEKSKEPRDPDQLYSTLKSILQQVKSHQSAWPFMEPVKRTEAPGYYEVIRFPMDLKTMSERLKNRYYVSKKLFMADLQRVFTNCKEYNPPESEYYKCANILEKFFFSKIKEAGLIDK
Excerpt: as §1, §2, §3

CARM1 [5] = molecular target: T3, CARM1 (Homo sapiens, UniProt Q86X55); experiment: Kinetic analysis of the pattern of inhibition of CARM1 methylation of histone H3; type: biochemical; settings: recombinant histone H3 and tritiated SAM varied; two inhibitor concentrations
T3 sequence (Q86X55 1-608): T1 sequence (Q86X55 1-608)
Description: Since the inhibitor is specific to CARM1 mediated methylation of histones which is directed to the histone H3, histone H3 was used as the substrate for the kinetic analysis. Initially, the inhibition was confirmed using the recombinant histone as the substrate. CARM1 methylation reaction was carried out using increasing concentration of histone H3 and the methyl group donor, tritiated SAM keeping the enzyme concentration constant. Two different inhibitor concentrations were assayed.

histone H3 = histone H3 (Homo sapiens, UniProt P68431); experiment: Isothermal Calorimetric Titration with substrate histone H3; type: binding; settings: substrate in cell titrated against inhibitor
Excerpt: FIG. 2: Binding Isotherm of Histone H3 with LTK20 Isothermal Calorimetric Titration carried out with the protein histone H3 and the ligand LTK20, which is the inhibitor.
(§4) The pattern of inhibition is uncompetitive indicating the mode of inhibition is via the Enzyme-Substrate complex, the binding of the inhibitor has been characterized by Isothermal Calorimetric Titration wherein either the substrate (histone H3) or enzyme (CARM1) was taken in the cell and titrated against the inhibitor (2,3,7,8TETRAHYDROXY[1]BENZOPYRANO[5,4,3(DE)[1]BENZOPYRAN5,10-DIONE).

CARM1 [6] = molecular target: T3, CARM1; experiment: Isothermal Calorimetric Titration with enzyme CARM1; type: binding; settings: enzyme in cell titrated against inhibitor
Excerpt: as §4

[7] = molecular target: CARM1 methylation sites on histone H3, R17 and R26 (Homo sapiens, UniProt P68431); experiment: In vitro CARM1 methylation reaction, western analysis with site-specific antibodies; type: biochemical
Description: (§5) FIGS. 3a and 3b: Preferential Inhibition of CARM1 Mediated Methylation Site-specific inhibition of arginine methylation of histone H3 observed in the presence of LTK20 both in vitro and in vivo. H3R17 and H3R26 are both CARM1 methylation sites on histone H3.
In vitro CARM1 methylation reaction was carried out in the presence or absence of inhibitors, and probed with antibodies against the specific CARM1 methylation sites on histone H3, R17 and R26.

[8] = tested on: CARM1 methylation sites on histone H3, R17 and R26 in HeLa cells; experiment: HeLa cells, western analysis of acid extracted histones; type: cell-based; settings: for Methylation of H3R17: 50 μM, 24 hours
Description: as §5
In vivo characterization was done by treating HeLa cells with the molecule at 50 μM concentration for a period of 24 hours, and the acid extracted histones were probed with antibodies against CARM1 methylation sites on histone H3, R17 and R26.

[9] = tested on: CARM1 methylation sites on histone H3, R17 and R26 in HeLa cells; experiment: HeLa cells, immunofluorescence analysis; type: cell-based; settings: 50 μM, 24 hours
Description: FIGS. 3c and 3d: Immunofluorescence Analysis of LTK20 Treated HeLa Cells
In vivo characterization was done by treating HeLa cells with the molecule at 50 μM concentration for a period of 24 hours, and the cells were probed with antibodies against CARM1 methylation sites on histone H3, R17 and R26 and were visualized by anti rabbit alexa fluor 488 antibody.

U2OS cells = experiment: Modulation of p53 and p21 protein levels in U2OS cells by western analysis; type: cell-based; settings: for p21 levels: UV irradiated U2OS cells, vs DMSO control
Excerpt: FIG. 4: Immunoblot Analysis with p21 Antibody UV irradiated U2OS cells treated with or without inhibitors. The lysate was probed with antibody against p21. p21 levels show an increase in the presence of LTK20 as compared to the DMSO control.
Physiological effect of the inhibitor was characterized by selecting the p53 system, since CARM1 mediated histone methylation is known to cooperatively enhance the transcriptional activation of p53 responsive genes. […] U2OS, which is a p53 positive cell line was used for the assay, and on treatment with molecule at 50 μM concentration for a period of 24 hours, p53 levels were altered. Since, the p53 responsive genes had to be assayed, p21 was selected (there is no apoptosis, therefore the apoptosis genes were not selected). UV irradiated cells were treated with (2,3,7,8-TETRAHYDROXY[1]BENZOPYRANO[5,4,3(DE)[1]BENZOPYRAN5,10-DIONE) for a period of 24 hours and the lysate was probed with antibody against p21. […] This clearly indicates a possible implication of this molecule in the tumor suppressor p53 mediated transcriptional activation.

[10] = filterbinding, HeLa core histones
[11] = listed as (2,3,7,8-TETRAHYDROXY[1]BENZOPYRANO[5,4,3(DE)[1]BENZOPYRAN5,10-DIONE)

Q: With `O=c1oc2c(O)c(O)cc3c(=O)oc4c(O)c(O)cc1c4c23` [LTK20, (2,3,7,8-TETRAHYDROXY[1]BENZOPYRANO [5,4,3(DE)[1]BENZOPYRAN 5,10-DIONE)] as the molecule, how does the IC50 ([1]; HeLa core histones as substrate, both filterbinding and fluorography assays) read?
A: Its IC50 is 20 µM.

Q: What about the “Effect on CARM1 activity (filterbinding assay)” value [1, 10] of the same molecule?
A: The value was “inhibits CARM1 activity”.

Q: What about the “Effect on CARM1 activity (gel assay, fluorography)” value ([1]; fluorography) of the same molecule?
A: Its value is “inhibits CARM1 activity”.

Q: What about the “Effect on G9a activity (filterbinding assay)” value [2, 10] of the same molecule?
A: Its value is “does not act on other enzymes”.

Q: And the “Effect on G9a activity (gel assay, fluorography)” value ([2]; fluorography)?
A: The value was “does not act on other enzymes”.

Q: And the “Effect on p300 activity (filterbinding assay)” value ([3]; filterbinding)?
A: Its value is “does not act on other enzymes”.

Q: And the “Effect on p300 activity (gel assay, fluorography)” value ([3]; fluorography)?
A: The value was “does not act on other enzymes”.

Q: What about the “Effect on PCAF activity (filterbinding assay)” value ([4]; filterbinding) of the same molecule?
A: The value was “does not act on other enzymes”.

Q: What about the “Effect on PCAF activity (gel assay, fluorography)” value ([4]; fluorography) of the same molecule?
A: The value was “does not act on other enzymes”.

Q: What about the “Pattern of CARM1 methylation inhibition” value (CARM1 [5]) of the same molecule?
A: Its value is “uncompetitive”.

Q: And the “Binding to histone H3 (ITC)” value (histone H3)?
A: The value was “fits to the two sequential binding site model”.

Q: What about the “Binding to histone H3 (ITC)” value (histone H3; listed as (2,3,7,8TETRAHYDROXY[1]BENZOPYRANO[5,4,3(DE)[1]BENZOPYRAN5,10-DIONE)) of the same molecule?
A: The value was “binds to the substrate at two sequential binding sites”.

Q: And the “Binding to CARM1 (ITC)” value (CARM1 [6])?
A: Its value is “no binding of the molecule to the enzyme”.

Q: And the “Methylation of H3R17” value [7]?
A: Its value is “inhibited”.

Q: What about the “Methylation of H3R26” value [7] of the same molecule?
A: Its value is “getting methylated”.

Q: What about the “Methylation of H3R17” value [7, 11] of the same molecule?
A: The value was “Site-specific inhibition of H3R17”.

Q: And the “Methylation of H3R26” value [8]?
A: The value was “getting methylated”.

Q: What about the “Methylation of H3R17” value [8] of the same molecule?
A: The value was “inhibited”.

Q: What about the “Methylation of H3R17” value [8, 11] of the same molecule?
A: The value was “Site-specific inhibition of H3R17”.

Q: And the “Methylation of H3R17” value [9]?
A: The value was “Site-specific inhibition of H3R17”.

Q: What about the Apoptosis (U2OS cells; U2OS cells) of the same molecule?
A: The Apoptosis was “no apoptosis”.

Q: And the p53 levels (U2OS cells; U2OS, 50 μM, 24 hours)?
A: The p53 levels was “altered”.

Q: What about the p21 levels (U2OS cells; 24 hours) of the same molecule?
A: The p21 levels was “increase”.

Q: And the p21 levels (U2OS cells; 24 hours, listed as (2,3,7,8-TETRAHYDROXY[1]BENZOPYRANO[5,4,3(DE)[1]BENZOPYRAN5,10-DIONE))?
A: Its p21 levels is “increase in p21 levels”.
